The values that follow come from patent US8652525B2, “NSAID delivery from polyarylates” (TYRX, Inc., priority 2008, dated 2014).

Structures are written as SMILES.

The conditions of data set [1]: p(10% DT, DTE succinate) solvent cast film, 20% loading. The method, then:
1 ml of the buffer was withdrawn periodically and run through the HPLC system described in Example 1.
Naproxen was formulated at 20% loading in a matrix of p(10% DT, DTE succinate) by solvent casting from methylene chloride and assessed for long-term release.

A further data set deals with post-operative pain. To be noted: after cesarean delivery; comparator ropivacaine continuous wound infiltration with intravenous (iv) diclofenac; cited from earlier work.
The nature of data set [2]: In vitro release profile of ketoprofen-loaded microparticles using dialysis tubes. It counts as physicochemical. To be noted: p(10% DT, DTE succinate) microparticles 125-180 μm, 40% loading. The method, then:
The p(10% DT, DTE succinate) was dried at 40° C. for 3 days and analyzed. 4.8 g of polymer was placed in a plastic beaker and topped with an excess of ethanol. The polymer was allowed to stand in ethanol at 50° C. for 2-3 hours. […] After overnight drying, the polymer/drug mixture was ground using a coffee grinder (overhead design). First, the polymer/drug mixture was cooled in liquid nitrogen. Then the polymer-drug mass was mixed with ground dry ice, added to the container of the grinder and ground at the highest speed for at least 5 min. The whole mixture of dry ice plus polymer/drug powder was transferred into a beaker, covered with Kimwipes™ and placed into a vacuum oven at 40° C. to dry overnight.
The in vitro release profile of the microparticles was determined using dialysis tubes.

The conditions of data set [3]: given orally for systemic distribution; cited from earlier work.
Data set [4] in a line: Ketoprofen release studies from polyarylate films and microparticles in phosphate buffered saline, HPLC. To be noted: for ketoprofen release rate: p(10% DT, DTE succinate) film; for ketoprofen released per day: p(10% DT, DTE succinate) solvent cast film.
Setting [5] is: p(10% DT, DTE adipate), PBS pH 7.4, 37° C.
[6] abbreviates: p(10% DT, DTE succinate) melt processed, compression molded film.

In the case of `COc1ccc2cc([C@H](C)C(=O)O)ccc2c1` [Naproxen], in data set [1], the “drug released per day” value was determined as 1 % per day, the release kinetics entry is “zero order kinetics” and the “time until release is complete” value is “about 3 months”.
Regarding `O=C(O)Cc1ccccc1Nc1c(Cl)cccc1Cl` [diclofenac], in the data set on post-operative pain, the “efficacy of continuous wound infiltration versus comparator” value is recorded as “more effective”.
In the case of `CC(C(=O)O)c1cccc(C(=O)c2ccccc2)c1` (centres unmarked) [ketoprofen], the “ketoprofen release after 6 days” value in data set [2] was found to be 100%. Moreover, the “ketoprofen released within 24 hours” value in data set [2] was “About 50%”. In addition, the “effective plasma concentration range” value in data set [3] is recorded as 1,000-4,000 ng/mL. Besides, in data set [4] (DTO polymers, PBS pH 7.4, 37° C.), the “ketoprofen release mechanism (shape of the release curve)” value was “diffusion controlled”. For the same compound, the ketoprofen release kinetics result in data set [4] (microparticles milled from compression molded p(10% DT, DTE succinate) film, all sizes) is given as “fairly linear release”; in data set [4] (p(10% DT, DTE adipate), after initial burst, PBS pH 7.4, 37° C.), “approximately zero order kinetics”; in data set [4] (setting [6]), “zero order kinetics”; in data set [4] (p(10% DT, DTE succinate) solvent cast films, all four loadings 10%, 20%, 30%, 40%), “zero order kinetics”. In addition, the “time until ketoprofen release is completed” value in data set [4] (microparticles milled from compression molded p(10% DT, DTE succinate) film, largest particles (>500 microns)) was “about 60 days”; in data set [4] (microparticles milled from compression molded p(10% DT, DTE succinate) film, smallest particles (212 to 425 microns)), “about 40 days”. Moreover, the “duration of ketoprofen release” value in data set [4] (setting [5]) came to 2 weeks. In addition, the “initial burst of ketoprofen release” value in data set [4] (setting [5]) was 20%. Besides, the ketoprofen release rate result is “about 3 % per day” in data set [4] (HMW polymer (94,000)) and “about 5 % per day” in data set [4] (LMW polymer (67,800)). The “rate of ketoprofen release” value in data set [4] (setting [6]) turned out to be 1.3 % per day. Also, the “ketoprofen released per day” value in data set [4] (10% loading, PBS pH 7.4, 37° C.) is recorded as “about 2 % per day”; in data set [4] (20% loading, PBS pH 7.4, 37° C.), 5 % per day; in data set [4] (30% loading, PBS pH 7.4, 37° C.) it was 6 % per day; in data set [4] (40% loading, PBS pH 7.4, 37° C.) it was “about 8 % per day”.
